In US4603217A, “Ester substituted alkyl-2-(2,6-dichloroanilino)phenyl acetates” (priority 1983, dated 1986):
Where two headings read alike, the source gives them in different places.

Key:
ultraviolet erythema = assay: inhibition action for ultraviolet erythema; assay type: in vivo, male Hartley guinea pigs; parameters: 2 hs after the irradiation, Average ± standard error / 3 hs after the irradiation, Average ± standard error / 5 hs after the irradiation, Average ± standard error: scale not given here; 2 hs after the irradiation, Rate for inhibition / 3 hs after the irradiation, Rate for inhibition / 5 hs after the irradiation, Rate for inhibition: unit not given here; conditions: for 2 hs after the irradiation, Average ± standard error / 2 hs after the irradiation, Rate for inhibition: 2 hs after irradiation; for 2 hs after the irradiation, Average ± standard error / 2 hs after the irradiation, Rate for inhibition / 3 hs after the irradiation, Average ± standard error / 3 hs after the irradiation, Rate for inhibition / 5 hs after the irradiation, Average ± standard error / 5 hs after the irradiation, Rate for inhibition / duration of the pharmacological effect: guinea pigs; for 3 hs after the irradiation, Average ± standard error / 3 hs after the irradiation, Rate for inhibition: 3 hs after irradiation; for 5 hs after the irradiation, Average ± standard error / 5 hs after the irradiation, Rate for inhibition: 5 hs after irradiation; for duration of the pharmacological effect: ultraviolet erythema, oral
Protocol: With respect to Compounds 1 to 3, 15 and 21 which are especially useful as an anti-inflammatory drug, IM and DF, inhibition action for ultraviolet erythema was investigated according to the method of Adames et al [cf. Nature, London, 181, 773 (1958)] using guinea pigs as follows: Male Hartley guinea pigs weighing 250 to 350 g were shaved at their sides the day before and two hrs before the ultraviolet irradiation. To the guinea pigs were administered orally Compounds 1 to 3, 15 and 21, IM and DF in amounts as described in Table 2, respectively. To the control group was administered orally only Tween-80. At 1 hr after the time of administration, the guinea pigs were irradiated at their shaved sides by ultraviolet beam for 40 seconds.
The reaction of the ultraviolet erythema was evaluated at 2 hrs, 3 hrs and 5 hrs after irradiation according to the method of Winder et al [cf. Arch. Int. Pharmacodyn., 116, 261 (1958)]. […] Compounds 1 and 2 show a duration of the pharmacological effect over 5 hrs, contrary to that IM has a duration of 2 hrs.

[1] = Rate of hydrolysis in rat plasma; assay type: in vitro ADME; conditions: in 1 ml of plasma rat (37° C., incubation for 1 hr)
Protocol: **in 1 ml of plasma rat (37° C., incubation for 1 hr)

in vivo [2] = conditions: rat, po
Protocol: Gastrointestinal ulcer formation action, which is a principal side effect of an acid anti-inflammatory drug, was investigated according to the method of Okabe et al [cf. […] The compounds of the present invention, IM, DF and acemethacin were suspended in 5% Tween-80 solution and administered orally 1 ml/100 g body weight to the rats, respectively. At 6 hrs after the administration, the state of glandstomach was observed by means of a dissecting microscope whether the ulcer having a diameter more than 1 mm was generated or not.

thiopental-induced sleep = assay: potentiating effect on thiopental-induced sleep in mice; assay type: in vivo, male ddY mice; conditions: for potentiating effect on thiopental-induced sleep relative to IM: mouse, in vivo
Protocol: (§1) Effect on central nervous system, which is another side effect of IM, was investigated according to the potentiating effect on thiopental-induced sleep in mice as follows: Male ddY mice weighing 20 to 24 g were subjected to fasting for 15 hrs. […] At 30 mins after the administration, thiopental sodium was injected intravenously to each of the mice in an amount of 35 mg/l kg body weight, and then, the sleeping time was observed. When the sleeping time of the mice to which the Test Compound was administered was longer than 2 times that of the control to which only Tween-80 was administered, the given Test Compound was judged to be effective on thiopental-induced sleep potentiating effect.

[3] = as above; assay type: in vivo, male ddY mice; conditions: mouse, in vivo, po
Protocol: as §1

carrageenan edema = assay: inhibition test of carrageenan edema employing a foot-pad edema method; assay type: in vivo, male Wister rats; conditions: for ED50: Rattus norvegicus, read-out: ED50 for inhibition for carrageenan edema; for anti-inflammatory activity compared with IM: relative to IM
From the text: Anti-inflammatory action was investigated according to the method of Winter et al [cf. Pro. Soc. Exp. Biol. Med., 111, 544 (1962)] by the inhibition test of carrageenan edema employing a foot-pad edema method using carrageenan as an irritating agent and male Wister rats weighing 130 to 170 g.

in vivo [4] = conditions: mouse, po
[5] = male Wister rats, foot-pad edema

SMILES	2 hs after the irradiation, Average ± standard error (ultraviolet erythema; 3 mg/kg orally)	2 hs after the irradiation, Rate for inhibition (ultraviolet erythema; 3 mg/kg orally)	3 hs after the irradiation, Average ± standard error (ultraviolet erythema; 3 mg/kg orally)	3 hs after the irradiation, Rate for inhibition (ultraviolet erythema; 3 mg/kg orally)	5 hs after the irradiation, Average ± standard error (ultraviolet erythema; 3 mg/kg orally)	5 hs after the irradiation, Rate for inhibition (ultraviolet erythema; 3 mg/kg orally)	2 hs after the irradiation, Average ± standard error (ultraviolet erythema; 10 mg/kg orally)	2 hs after the irradiation, Rate for inhibition (ultraviolet erythema; 10 mg/kg orally)	3 hs after the irradiation, Average ± standard error (ultraviolet erythema; 10 mg/kg orally)	3 hs after the irradiation, Rate for inhibition (ultraviolet erythema; 10 mg/kg orally)	5 hs after the irradiation, Average ± standard error (ultraviolet erythema; 10 mg/kg orally)	5 hs after the irradiation, Rate for inhibition (ultraviolet erythema; 10 mg/kg orally)	duration of the pharmacological effect (ultraviolet erythema)	metabolised at 1 h [1]	TD50 at 6 h (in vivo [2])	potentiating effect on thiopental-induced sleep relative to IM (thiopental-induced sleep)	ED50 [3]	ED50 (carrageenan edema; [5])	anti-inflammatory activity compared with IM (carrageenan edema)	LD50 (in vivo [4])	also measured
C/C=C/C(=O)OCOC(=O)Cc1c(C)n(C(=O)c2ccc(Cl)cc2)c2ccc(OC)cc12 [Compound 1, Crotonoyloxymethyl[1-(p-chlorobenzoyl)-5-methoxy-2-methyl-3-indolyl]acetate]	1.50 ± 0.337	43.8	2.08 ± 0.193	26.5	1.92 ± 0.193	32.2	1.17 ± 0.322	56.2	1.58 ± 0.288	44.2	1.92 ± 0.229	32.2	over 5 hrs	88.9%	15 mg/kg	1/4.3	455 mg/kg	6 mg/kg	equal anti-inflammatory activity to IM	105 mg/kg	–
COc1ccc2c(c1)c(CC(=O)OCOC(=O)C=C(C)C)c(C)n2C(=O)c1ccc(Cl)cc1 [Compound 2, 3,3-Dimethylacryloyloxymethyl[1-(p-chlorobenzoyl)-5-methoxy-2-methyl-3-indolyl]acetate]	1.83 ± 0.297	31.5	1.83 ± 0.207	35.3	2.0 ± 0.174	29.3	0.83 ± 0.241	68.9	0.83 ± 0.241	70.7	1.0 ± 0.369	64.7	over 5 hrs	78%	20 mg/kg	–	–	6 mg/kg	equal anti-inflammatory activity to IM	67 mg/kg	–
C/C=C/C(=O)OC(C)OC(=O)Cc1c(C)n(C(=O)c2ccc(Cl)cc2)c2ccc(OC)cc12 (centres unmarked) [Compound 10, 1-(Crotonoyloxy)ethyl[1-(p-chlorobenzoyl)-5-methoxy-2-methyl-3-indolyl]acetate]	–	–	–	–	–	–	–	–	–	–	–	–	–	88.2%	20 mg/kg	1/2.5	261 mg/kg	7 mg/kg	–	65 mg/kg	–
CC=CC=CC(=O)OC(C)OC(=O)Cc1ccccc1Nc1c(Cl)cccc1Cl (centres unmarked) [Compound 21, 1-(2,4-Hexadienoyloxy)ethyl-2-(2,6-dichloroanilino)phenylacetate]	1.33 ± 0.211	50.2	3.00 ± 0	0	3.00 ± 0	0	1.50 ± 0.224	43.8	2.50 ± 0.224	11.7	2.50 ± 0.224	11.7	–	78.2%	> 80 mg/kg	–	–	30 mg/kg	–	790 mg/kg	inhibition effect for ultraviolet erythema compared with IM and DF (ultraviolet erythema; relative to IM and DF): equal inhibition effect for ultraviolet erythema to that of IM and DF
O=C(O)Cc1ccccc1Nc1c(Cl)cccc1Cl [DF, diclofenac, reference compound]	1.17 ± 0.307	56.2	2.17 ± 0.401	23.3	2.67 ± 0.211	5.7	1.17 ± 0.307	56.2	2.50 ± 0.342	11.7	2.83 ± 0.167	0	–	–	–	–	–	–	–	–	potentiating effect on thiopental-induced sleep (in words) (thiopental-induced sleep; mice, oral): did not show the potentiating effect; ED50 (carrageenan edema): 15 mg/kg
COc1ccc2c(c1)c(CC(=O)O)c(C)n2C(=O)c1ccc(Cl)cc1 [IM, indomethacin, reference compound]	2.17 ± 0.307	18.7	2.5 ± 0.224	11.7	2.83 ± 0.167	0	1.33 ± 0.217	50.2	2.83 ± 0.167	0	3.0 ± 0	0	2 hrs	–	–	–	205 mg/kg	–	–	31.5 mg/kg	TD50 at 6 h (in vivo [2]; in vivo): 8 mg/kg; ED50 (carrageenan edema): 5.5 mg/kg
